US9029553B2, “2-anilino nicotinyl linked 2-amino benzothiazole conjugates and process for the preparation thereof” (Council of Scientific & Industrial Research, priority 2011, dated 2015)

What was measured:
Test in all cases: NCI SRB GI50 screen
Format in all cases: cell-based
786-0 = settings: Homo sapiens, Renal, 48 hrs exposure, read-out: Growth Inhibition GI50 786-0
Experimental: (§1) 2-Anilino nicotinyl linked 2-amino benzothiazole conjugates of formula 9-12 were tested against fifty nine human cancer cell lines derived from nine cancer types (leukemia, non-small cell lung cancer, colon cancer, CNS cancer, melanoma, ovarian cancer, renal cancer, prostate cancer and breast cancer) as per NCI protocol. For each compound, dose response curves for individual cell lines were measured at a minimum of five concentrations at 10 fold dilutions. A protocol of 48 hrs continuous drug exposure was used, and a sulforhodamine B (SRB) protein assay was used to estimate cell viability or growth.

A549/ATCC = settings: Homo sapiens, Non-small lung, 48 hrs exposure, read-out: Growth Inhibition GI50 A549/ATCC
Experimental: as §1

COLO 205 = settings: Homo sapiens, Colon, 48 hrs exposure, read-out: Growth Inhibition GI50 COLO 205
Experimental: as §1

HOP-62 = settings: Homo sapiens, Non-small lung, 48 hrs exposure, read-out: Growth Inhibition GI50 HOP-62
Experimental: as §1

HOP-92 = settings: Homo sapiens, Non-small lung, 48 hrs exposure, read-out: Growth Inhibition GI50 HOP-92
Experimental: as §1

K-562 = settings: Homo sapiens, K562; Leukemia, 48 hrs exposure; read-out: Growth Inhibition GI50 K-562
Experimental: as §1

LOX IMVI = settings: Homo sapiens, Melanoma, 48 hrs exposure, read-out: Growth Inhibition GI50 LOX IMVI
Experimental: as §1

M14 = settings: Homo sapiens, Melanoma, 48 hrs exposure, read-out: Growth Inhibition GI50 M14
Experimental: as §1

MALME-3M = settings: Homo sapiens, read-out: Growth Inhibition GI50 MALME-3M, Melanoma, 48 hrs exposure
Experimental: as §1

MDA-MB-435 = settings: Homo sapiens, Melanoma, 48 hrs exposure, read-out: Growth Inhibition GI50 MDA-MB-435
Experimental: as §1

MDA-MB-468 = settings: Homo sapiens, Breast, 48 hrs exposure, read-out: Growth Inhibition GI50 MDA-MB-468
Experimental: as §1

MOLT-4 = settings: Homo sapiens, Leukemia, 48 hrs exposure, read-out: Growth Inhibition GI50 MOLT-4
Experimental: as §1

NCI-H226 = settings: Homo sapiens, Non-small lung, 48 hrs exposure, read-out: Growth Inhibition GI50 NCI-H226
Experimental: as §1

NCI-H23 = settings: Homo sapiens, Non-small lung, 48 hrs exposure, read-out: Growth Inhibition GI50 NCI-H23
Experimental: as §1

NCI-H322M = settings: Homo sapiens, Non-small lung, 48 hrs exposure, read-out: Growth Inhibition GI50 NCI-H322M
Experimental: as §1

NCI-H460 = settings: Homo sapiens, Non-small lung, 48 hrs exposure, read-out: Growth Inhibition GI50 NCI-H460
Experimental: as §1

OVCAR-3 = settings: Homo sapiens, Ovarian, 48 hrs exposure, read-out: Growth Inhibition GI50 OVCAR-3
Experimental: as §1

OVCAR-4 = settings: Homo sapiens, Ovarian, 48 hrs exposure, read-out: Growth Inhibition GI50 OVCAR-4
Experimental: as §1

OVCAR-5 = settings: Homo sapiens, Ovarian, 48 hrs exposure, read-out: Growth Inhibition GI50 OVCAR-5
Experimental: as §1

PC-3 = settings: Homo sapiens, Prostate, 48 hrs exposure, read-out: Growth Inhibition GI50 PC-3
Experimental: as §1

SF-268 = settings: Homo sapiens, CNS, 48 hrs exposure, read-out: Growth Inhibition GI50 SF-268
Experimental: as §1

SF-295 = settings: Homo sapiens, CNS, 48 hrs exposure, read-out: Growth Inhibition GI50 SF-295
Experimental: as §1

SF-539 = settings: Homo sapiens, CNS, 48 hrs exposure, read-out: Growth Inhibition GI50 SF-539
Experimental: as §1

SK-MEL-2 = settings: Homo sapiens, Melanoma, 48 hrs exposure, read-out: Growth Inhibition GI50 SK-MEL-2
Experimental: as §1

SK-OV-3 = settings: Homo sapiens, Ovarian, 48 hrs exposure, read-out: Growth Inhibition GI50 SK-OV-3
Experimental: as §1

SN12C = settings: Homo sapiens, Renal, 48 hrs exposure, read-out: Growth Inhibition GI50 SN12C
Experimental: as §1

SNB-75 = settings: Homo sapiens, CNS, 48 hrs exposure, read-out: Growth Inhibition GI50 SNB-75
Experimental: as §1

SR = settings: Homo sapiens, Leukemia, 48 hrs exposure, read-out: Growth Inhibition GI50 SR
Experimental: as §1

T-47D = settings: Homo sapiens, T47D; Breast, 48 hrs exposure; read-out: Growth Inhibition GI50 T-47D
Experimental: as §1

TK-10 = settings: Homo sapiens, Renal, 48 hrs exposure, read-out: Growth Inhibition GI50 TK-10
Experimental: as §1

U251 = settings: Homo sapiens, U-251; CNS, 48 hrs exposure; read-out: Growth Inhibition GI50 U251
Experimental: as §1

Row | SMILES | GI50 (786-0) | GI50 (A549/ATCC) | GI50 (COLO 205) | GI50 (HOP-62) | GI50 (HOP-92) | GI50 (K-562) | GI50 (LOX IMVI) | GI50 (M14) | GI50 (MALME-3M) | GI50 (MDA-MB-435) | GI50 (MDA-MB-468) | GI50 (MOLT-4) | GI50 (NCI-H226) | GI50 (NCI-H23) | GI50 (NCI-H322M) | GI50 (NCI-H460) | GI50 (OVCAR-3) | GI50 (OVCAR-4) | GI50 (OVCAR-5) | GI50 (PC-3) | also measured
1 | O=C(Nc1nc2ccc(F)cc2s1)c1cccnc1Nc1ccc(Cl)cc1 [Compound 9, N3-(6-fluoro-1,3-benzothiazol-2-yl)-2-(4-chloroanilino)nicotinamide] | 2.78 µM | 2.32 µM | 1680 nM | 2.7 µM | 1690 nM | 726 nM | 2.62 µM | 2.64 µM | 1940 nM | 2990 nM | 1610 nM | 2220 nM | 2320 nM | 1670 nM | 3.25 µM | 1970 nM | 2170 nM | 2920 nM | 2.63 µM | 2130 nM | GI50 (SF-268): 3.93 µM; GI50 (SF-295): 1800 nM; GI50 (SF-539): 2.7 µM; GI50 (SK-MEL-2): 1250 nM; GI50 (SK-OV-3): 2.23 µM; GI50 (SN12C): 2.3 µM; GI50 (SNB-75): 2950 nM; GI50 (SR): 2280 nM; GI50 (T-47D): 730 nM; GI50 (TK-10): 3 µM; GI50 (U251): 3.03 µM
2 | O=C(Nc1nc2ccc(F)cc2s1)c1cccnc1Nc1ccc(Cl)cc1Cl [Compound 10, N3-(6-fluoro-1,3-benzothiazol-2-yl)-2-(2,4-dichloroanilino)nicotinamide] | 3.77 µM | 2.96 µM | 1900 nM | 3.94 µM | 1480 nM | 1780 nM | 4.19 µM | 3.37 µM | 2380 nM | 3030 nM | 1880 nM | 2270 nM | 2700 nM | 2340 nM | 3.24 µM | 2560 nM | 2440 nM | 2960 nM | 4.46 µM | 2110 nM | GI50 (SF-268): 3.88 µM; GI50 (SF-295): 1830 nM; GI50 (SF-539): 4.02 µM; GI50 (SK-MEL-2): 1740 nM; GI50 (SK-OV-3): 2.5 µM; GI50 (SN12C): 2.32 µM; GI50 (SNB-75): 2550 nM; GI50 (SR): 3030 nM; GI50 (T-47D): 1930 nM; GI50 (TK-10): 3.05 µM; GI50 (U251): 2.9 µM
3 | COc1cc(Nc2ncccc2C(=O)Nc2nc3ccc(F)cc3s2)cc(OC)c1OC [Compound 11, N3-(6-fluoro-1,3-benzothiazol-2-yl)-2-(3,4,5-trimethoxyanilino)nicotinamide] | 5.51 µM | 3.11 µM | 3040 nM | 5.78 µM | 1480 nM | 1680 nM | 3.87 µM | 3.08 µM | 3270 nM | 2870 nM | 1220 nM | 2110 nM | 2950 nM | 2270 nM | 3.71 µM | 3300 nM | 2770 nM | 2730 nM | 25.6 µM | 2730 nM | GI50 (SF-268): 6.56 µM; GI50 (SF-295): 2550 nM; GI50 (SF-539): 3.84 µM; GI50 (SK-MEL-2): 2340 nM; GI50 (SK-OV-3): 7.4 µM; GI50 (SN12C): 4.73 µM; GI50 (SNB-75): 4480 nM; GI50 (SR): 2970 nM; GI50 (T-47D): 2300 nM; GI50 (U251): 3.01 µM
4 | COc1ccc2nc(NC(=O)c3cccnc3Nc3cc(OC)c(OC)c(OC)c3)sc2c1 [Compound 12, N-3-(6-methoxy-1,3-benzothiazol-2-yl)-2-(3,4,5-trimethoxyanilino) nicotinamide] | 5.6 µM | 7.38 µM | 17400 nM | 6.33 µM | 2240 nM | 8910 nM | 15.7 µM | 10.5 µM | 10100 nM | 1850 nM | 17800 nM | 24200 nM | 10700 nM | 5380 nM | 17.3 µM | 7420 nM | 8920 nM | 15000 nM | 14.5 µM | 6670 nM | GI50 (SF-268): 4.43 µM; GI50 (SF-295): 8340 nM; GI50 (SF-539): 2.81 µM; GI50 (SK-OV-3): 3.72 µM; GI50 (SN12C): 11.7 µM; GI50 (SNB-75): 2890 nM; GI50 (SR): 2310 nM; GI50 (T-47D): 5060 nM; GI50 (TK-10): 4.31 µM; GI50 (U251): 7.1 µM
